In patent publication EP3323812B1, “ARYLALKYL-AND ARYLOXYALKYL-SUBSTITUTED EPITHELIAL SODIUM CHANNEL BLOCKING COMPOUNDS” (Parion Sciences, Inc., priority 2012, dated 2014):

Columns and labels:
CBE cells = test: Airway hydration: apical surface liquid retention on primary CBE cells at air-liquid interface; type: cell-based, canine; conditions: 10 µM, after 8 hours, 50 µl applied to apical surface of CBE cells
Protocol: Primary CBE cells are plated onto collagen-coated, porous membranes maintained at an air-liquid interface to assess maintenance of surface liquid volume over time. […] To reduce artifact due to an apical carbohydrate osmotic gradient upon water loss, glucose was not included in the apical buffer.

Muc5B = Muc5B (Homo sapiens, UniProt Q9HC84); conditions: in vitro; also printed as 3.26%; cited from earlier work

SMILES	surface liquid retained (% initial volume) (CBE cells)	concentration required to fully reduce Muc5B (Muc5B)
N=C(N)NC(=O)c1nc(Cl)c(N)nc1N [Amiloride, amiloride]	25±19.2%	
CC(=O)N[C@@H](CS)C(=O)O [NAC, N-acetyl cysteine]		200 mM
